Results from US20040043937A1, “Peptide and peptide mimetic derivatives with integrin-inhibitors properties II” (priority 2000, published 2004).
Where no end group is shown, it is not given here.

Tested on: mouse MC3T3 H1 osteoblast cultures
Assay: Cell adhesion test: adhesion of osteoblast cultures in vitro to peptide-coated material surfaces
Type: cell-based
Conditions: 50 000 cells/cm^2 inoculated, incubation in serum-free medium at 37° C./95% atmospheric humidity for one hour
Protocol: Example for Cell Adhesion Test The adhesion of mouse MC3T3 H1 osteoblast cultures in vitro to peptide-coated material surfaces was investigated. In this test, 50 000 cells/cm^2 were inoculated and, after incubation in serum-free medium at 37° C./95% atmospheric humidity for one hour, the proportion of adhered cells was determined. Cell adhesion rate [%]=adhered cells/inoculated cells×100 The coating of culture surfaces made of polystyrene precoated with bovine serum albumin (BSA) with thiol peptides is disclosed in the prior art (see DE 198 18098 (Merck Patent GmbH), Ex. 2). The coating of PMMA surfaces with acrylate peptides is also described in DE 198 18098, Ex. 3.

Substance | cell adhesion rate [%] (adhered cells/inoculated cells×100)
Phe-Gln-Arg-Asn-Arg-Lys-Aca-Aca-Cys (FQRNRK-{Aca-Aca-Cys}) [linear peptide with thiol (Cys) anchor] | 13
Gua-Mab-azaGly-Asp-Hda-εAhx-εAhx-Aca | 75
Thr-Trp-Tyr-Lys-Ile-Ala-Phe-Gln-Arg-Asn-Arg-Lys-Aca-Aca-Cys (TWYKIAFQRNRK-{Aca-Aca-Cys}) [linear peptide with thiol (Cys) anchor] | 105
Cys-Aca-Aca-Thr-Trp-Tyr-Lys-Ile-Ala-Phe-Gln-Arg-Asn-Arg-Lys ({Cys-Aca-Aca}-TWYKIAFQRNRK) [linear peptide with thiol (Cys) anchor] | 101
Lys-Ile-Ala-Phe-Gln-Arg-Asn-Arg-Lys-Aca-Aca-Cys (KIAFQRNRK-{Aca-Aca-Cys}) [linear peptide with thiol (Cys) anchor] | 96
Cys-Aca-Aca-Thr-Trp-Tyr-Lys-Ile-Ala-Phe-Gln-Arg ({Cys-Aca-Aca}-TWYKIAFQR) [linear peptide with thiol (Cys) anchor] | 17
Cys-Aca-Aca-Thr-Trp-Tyr-Lys-Ile-Ala ({Cys-Aca-Aca}-TWYKIA) [linear peptide with thiol (Cys) anchor] | 7
